Experimental findings from patent US20230331792A1, “NEW MULTI-FUNCTIONAL OLIGOPEPTIDES” (ENLITISA (SHANGHAI) PHARMACEUTICAL CO., LTD., priority 2019, published 2023) are described below.

Series [1] has as its system Human Influenza A Virus H1N1. The following applies: virus mixed with drug 1 hour, 2-128 μg/mL; Vero cells; viral RNA.
A short description of series [2]: Pharmacokinetics of montelukast with and without sMAP. The following applies: SD, rat, plasma, 0.2 mg.
In another series the test system is C57BL/6 mice. In words: Air pouch model (carrageenan-induced acute inflammation). The series is classed as in vivo. Further details: key to Inflammation score / Edema score: 1 = mild, 2 = moderate, 3 = severe. The settings on record: dexamethasone 400 μg/mouse. On the procedure: Healthy adult male C57BL/6 mice weighing between 20 and 30 g were supplied by Changzhou Cvens Experimental Animal Co. Ltd. Prior to any experiments being conducted, the mice were housed under standardized conditions (at a constant temperature or 22±2° C., with alternating 12-hour periods of light and darkness), and were fed on a standard mouse diet with water, for about a week. The mice were randomly divided into 9 groups as described in Table 4, with 7 mice in each group.
General anaesthesia was induced using intraperitoneal delivery of 3% chloral hydrate (Sinopharm Chemical Reagent Co., Ltd., Shanghai, China); 1 mL/10 g of body weight). The hair of the entire dorsum was shaved and depilated one day before sterile air injection.
Air pouches were produced by subcutaneous injection of sterile air (5 mL) into the intrascapular area of the mice. After three days, another injection of air (3 mL) was performed to maintain the pouches. In order to induce acute inflammation, three days after the second injection, animals received an injection of sterile carrageenan solution (CP Kelco, Taixing, Jiangsu Province, China; 1%, 0.5 mL; produced by adding 0.1 g of carrageenan powder into a beaker containing 10 mL of 0.9% saline solution and stirring). Mice were pre-treated with test samples or vehicle 1 hour before and 23 hours after the carrageenan injection into the subcutaneous air pouch. Animals were sacrificed 24 hours after the carrageenan injection.
Skin biopsies were taken from the air pouches. A part of the biopsy was fixed in formalin (produced by adding ultra-pure water to 50 mL of a 40% formaldehyde solution (Nanchang Rain Dew Experimental Equipment Co., Ltd., Nanchang, […] Provence, China) up to a total volume of 500 mL) and analyzed by histological embedding in paraffin wax, sectioning and staining.
The histological specimens were analyzed, and an inflammation score and an edema score were estimated. The inflammation scores were estimated by observing heamatoxylin and eosin (HE) stained slices under an optical microscope. Scores (between 1 to 3 points) were given according to the perceived inflammation level (e.g. in cases where only a small amount of inflammatory cells scattered in the area: 1 point was given (mild); in cases where many inflammatory cells were observed: 2 points were given (moderate); and, in cases with diffuse infiltration: 3 points were given (severe)). A similar scoring system was employed for edema levels (3 points for most severe and 1 point for mild) after overall observation.
After conducting some preliminary experiments to validate the model, an experiment was conducted in which mice were treated by administering test samples or vehicle in accordance with Table 4 below. Compound A and Compound B were dissolved in saline at concentrations indicated in Table 4 below (L=low dose, M=medium dose, H=high dose).
Compound A and Compound B were synthesized as described in Examples 8 and 7 above, respectively. The peptide powders were stored at −20° C. prior to use. Dexamethasone (Dex) was obtained from Shanghai Aladdin Bio-Chem Technology Co., Ltd., Shanghai, China.

Another series deals with SD rats. Put plainly: Experimental gastric ulcer model (anhydrous alcohol). It is filed as in vivo. The following applies: omeprazole 2 mg/mL, 4 mg/kg oral gavage once per day for 30 days. Here is the method: SPF grade SD rats were used in this experiment, with 10 rats in each group. According to an evaluation method of health food for gastric ulcer issued by Chinese State Food and Drug Administration, the protective effect of Compound B on acute gastric ulcers induced by anhydrous alcohol was observed after continuous gavage for 30 days.
Omeprazole enteric-coated capsules (20 mg/capsule; Heilongjiang Norgas Pharmaceutical Co., Ltd., China) were opened and the powder was dissolved in water to make a 2 mg/mL solution. Compound B (see Example 7 above) powder was dissolved in water to make two solutions with concentrations of 0.25 mg/mL and 0.75 mg/mL. Administration volumes were […].
All drugs were administrated as shown in Table 13 by oral gavage for 30 consecutive days, once per day. The rats had free access to water. On the 30th day, rats were fasted for 24 hours after the last drug administration. On the 31st day, 1.0 mL/rat of absolute ethanol was given by gavage to each rat in all of the experimental groups except the control group.
1 hour later, all of the rats were sacrificed and dissected to expose the intact stomach, followed by ligation of the pylorus. 10% formaldehyde solution was administered into the stomach by perfusion and fixed for 20 minutes. The stomach was dissociated after fixation and cut open along the greater curvature. The stomach contents were washed off the lining with saline to reveal the gastric mucosa.
The length and width of gastric mucosal bleeding were measured with a Vernier calliper under a stereo microscope or by the naked eye.

The subject of another series is person two. Put plainly: Ulcerative colitis, patient case. The settings on record: oral 5-aminosalicylic acid for 3 days. The series is classed as in vivo, human. An excerpt:
person two was diagnosed with an acute attack of ulcerative colitis. […] After this, they were given the same Compound C gel as described in Example 41 above, at the same dose, 3 times over the first two days. The frequent with which they had to go to the toilet reduced to 3 to 4 times a day.

The next series in a line: in vivo. The settings on record: SD, rat.

Bridge positions count the residues as written; N and C are the ends. Square brackets hold non-standard residues; d marks the D form. Ends that are not written are not given here. I, II: the chains in the order shown. Dopa = N[C@@H](Cc1ccc(O)c(O)c1)C(=O)O; Hyp = O=C(O)[C@@H]1C[C@@H](O)CN1 A value given as a limit tells only on which side of the number the result lay.

Experimental for in vivo: The rats were treated by administering test samples.
The rats were anesthetized by 2% isoflurane inhalation. The rats were placed in the supine position, the rectum end stool was extruded and 75% alcohol cotton ball was used to disinfect the anal periphery skin area.
A 2 mL syringe was used to draw back the air bag cavity to ensure that there was no air in the air bag after water filling. The catheter (2-WAY 8Ch/Fr3-5 mm) was inserted into the rats anus at a depth of about 3 cm (2 cm length from the end of the balloon; the tip of the catheter was cut below the position of the urethral catheter tip, and shortened as much as possible while maintaining the integrity of the air cavity. The guide wire was removed, the urethral catheter was sealed with neutral glass glue while ensuring smooth sealing end to reduce the damage to the rectal mucosa).
While the perianal skin was held to fix the catheter and the gavage needle, 1 mL of water was injected with a 2 mL syringe into the airbag cavity in order to expand it, and the needle was then quickly released to observe whether there was gel leakage.
After injection, adhesive tape was wrapped around the tail root to fix the catheter (the catheter was litigated about 3-5 cm from the anus, then cut off after ligation, and an adhesive tape was wrapped around the tail root for fixation. The fixation of the pressure-sensitive adhesive tape is based on the standard of non-looseness of the urinary catheter, which should not be too tight and cause discomfort for animals to bite. The catheter should be fixed by tape twice: the catheter should be knotted the first time, while the remaining catheter should be fixed at the end of the tail the second time. The 3 cm scale on the catheter should be at the anus, and the catheter should not be taken out when the knot is tied). The rats were put back into the cage after administration.
An anal plug was maintained in the rectum for 4 h to extend the retention time of the drug in the animal body. The anal plug dropped within 4 h after the drug was administered, and the approximate time period of the drop was recorded.
Blood samples were processed by coating all centrifuge tubes with EDTA-K2 and storing them either in a refrigerator (2-8° C.) or a cooler filled with ice, protected from light prior to use; the blood that was collected was transferred into the centrifuge tubes and stored in ice box protected from light after having been mixed manually by reversing the tubes at least 5 times. The samples were subsequently centrifuged at 1800 g for 10 minutes at 2 to 8° C. within 2 hours from blood collection. After the centrifugation, the collected plasma samples were transferred into newly labeled centrifuge tubes, aliquoted into two sets, and stored below −70° C. away from light.
AUC, Cmax, Tmax, and any other parameters as needed, were calculated using WinNonlin software. Microsoft Office Excel was used for data statistical analysis, including mean, standard deviation (SD), and coefficient of variation (CV), etc. The difference in pharmacokinetic parameters between the two groups was compared.

Regarding “I: AKPS[Dopa][Hyp]T[Dopa][Hyp]KKK / II: AKPS[Dopa][Hyp]T[Dopa][Hyp]KK / III: AKPS[Dopa][Hyp]T[Dopa][Hyp]K / IV: AKPS[Dopa][Hyp]T[Dopa][Hyp]K (amide I:11-IV:C, I:12-II:C, II:11-III:C) [Compound C, [(Ala-Lys-Pro-Ser-DOPA-Hyp-Thr-DOPA-Hyp-Lys)2-Lys]2-Lys]”, the “IC50 (virus inhibition rate)” value in series [1] is more than 32 µg/mL.

What is called AUC(0-t) is exposure summed from dosing to a finite time, without extrapolation to infinity. In general, Cmax refers to the peak of the concentration-time curve. What is called Tmax is the time from dosing to the highest level. The half-life is the time needed for the level to fall by half in the phase considered. As to `CC(C)(O)c1ccccc1CC[C@@H](SCC1(CC(=O)O)CC1)c1cccc(/C=C/c2ccc3ccc(Cl)cc3n2)c1` [Montelukast, montelukast sodium], in series [2] (female), the AUC(0-t) was determined as 229 ng·h/mL, the Cmax is 156 ng/mL, the Tmax was determined as 0.5 h and the half-life is 2.3 h. In series [2] (male), the AUC(0-t) came to 238 ng·h/mL, the Cmax amounted to 151 ng/mL, the Tmax was found to be 0.5 h and the half-life was 1.8 h.

Regarding `C[C@@H]1C[C@H]2[C@@H]3CCC4=CC(=O)C=C[C@]4(C)[C@@]3(F)[C@@H](O)C[C@]2(C)[C@@]1(O)C(=O)CO` [Dex, Dexamethasone, reference compound], the “Sum of the scores” value in the series with C57BL/6 mice was 2.14. The Inflammation score with C57BL/6 mice (1 h before and 23 h after carrageenan, histology, score 1-3) stood at 0.57. This compound came in with an Edema score in the series on C57BL/6 mice (histology, score 1-3) of 1.57.

Consider `COc1ccc2[nH]c([S+]([O-])Cc3ncc(C)c(OC)c3C)nc2c1` (centres unmarked) [Omeprazole, reference compound], for which the Damage score in the series on SD rats worked out at 20.

In the case of `Nc1ccc(O)c(C(=O)O)c1` [Mesalazine, 5-aminosalicylic acid], the “symptoms of ulcerative colitis” value in the series on person two is given as “symptoms did not change”. Further, in “in vivo” (female), the AUC(0-t) was 38900 ng·h/mL, the Cmax worked out at 13800 ng/mL and the Tmax came to 1.83 h. For the same compound, in the series “in vivo” (male), the AUC(0-t) worked out at 56100 ng·h/mL, the Cmax came to 17500 ng/mL and the Tmax is 1.67 h.
